From publication PMC12102759 (Protein Science : A Publication of the Protein Society, 2025)
Like-named read-outs stand apart in the source and are kept apart here.

Test system: PABPC1 PABC
Type: binding, human
Details: DMS-BM library, bait PABPC1 PABC, row aa = residue at this position; for DMS-derived PSSM value, position A8: A = wild type; for DMS-derived PSSM value, position L2 / DMS-derived PSSM value, position L4: L = wild type
[1] = prey ATXN2, peptide KSTLNPNAKEFNPRSF, P = wild type
[2] = prey ATXN2, peptide KSTLNPNAKEFNPRSF
[3] = prey ATXN2, peptide KSTLNPNAKEFNPRSF, N = wild type
[4] = prey ATXN2, peptide TLNPNAKEFNPRSFSQ
[5] = prey ATXN2, peptide TLNPNAKEFNPRSFSQ, S = wild type
[6] = prey ATXN2, TLNPNAKEFNPRSF(averaged) over the two overlapping peptides, F = wild type
[7] = prey ATXN2, peptide KSTLNPNAKEFNPRSF, F = wild type
[8] = prey ATXN2, peptide TLNPNAKEFNPRSFSQ, N = wild type
[9] = prey ATXN2, TLNPNAKEFNPRSF(averaged) over the two overlapping peptides, N = wild type

KSTLNPNAKEFNPRSF P13M (KSTLNPNAKEFNMRSF)
DMS-derived PSSM value, position P13 [1]: 0

KSTLNPNAKEFNPRSF A8Y (KSTLNPNYKEFNPRSF)
DMS-derived PSSM value, position A8 [2]: 0

KSTLNPNAKEFNPRSF A8V (KSTLNPNVKEFNPRSF)
DMS-derived PSSM value, position A8 [2]: 0.4196

KSTLNPNAKEFNPRSF N5R (KSTLRPNAKEFNPRSF)
DMS-derived PSSM value, position N5 [3]: 0

TLNPNAKEFNPRSFSQ T1S (SLNPNAKEFNPRSFSQ)
DMS-derived PSSM value, position T1 (prey ATXN2, peptide TLNPNAKEFNPRSFSQ, T = wild type): 0.004758

KSTLNPNAKEFNPRSF A8P (KSTLNPNPKEFNPRSF)
DMS-derived PSSM value, position A8 [2]: 0

KSTLNPNAKEFNPRSF E10P (KSTLNPNAKPFNPRSF)
DMS-derived PSSM value, position E10 (prey ATXN2, peptide KSTLNPNAKEFNPRSF, E = wild type): 0.01939

TLNPNAKEFNPRSFSQ L2K (TKNPNAKEFNPRSFSQ)
DMS-derived PSSM value, position L2 [4]: 0.001564

TLNPNAKEFNPRSFSQ S13W (TLNPNAKEFNPRWFSQ)
DMS-derived PSSM value, position S13 [5]: 0.02517

KSTLNPNAKEFNPRSF A8W (KSTLNPNWKEFNPRSF)
DMS-derived PSSM value, position A8 [2]: 0

TLNPNAKEFNPRSFSQ S15Q (TLNPNAKEFNPRSFQQ)
DMS-derived PSSM value, position S15 [5]: 0.01622

KSTLNPNAKEFNPRSF A8K (KSTLNPNKKEFNPRSF)
DMS-derived PSSM value, position A8 [2]: 0

TLNPNAKEFNPRSF(averaged) F14H (TLNPNAKEFNPRSH)
DMS-derived PSSM value (averaged), position F14 [6]: 0.06346

KSTLNPNAKEFNPRSF N5L (KSTLLPNAKEFNPRSF)
DMS-derived PSSM value, position N5 [3]: 0

KSTLNPNAKEFNPRSF F11Q (KSTLNPNAKEQNPRSF)
DMS-derived PSSM value, position F11 [7]: 0

TLNPNAKEFNPRSFSQ N10V (TLNPNAKEFVPRSFSQ)
DMS-derived PSSM value, position N10 [8]: 0.0007642

TLNPNAKEFNPRSFSQ E8Q (TLNPNAKQFNPRSFSQ)
DMS-derived PSSM value, position E8 (prey ATXN2, peptide TLNPNAKEFNPRSFSQ, E = wild type): 0.04954

TLNPNAKEFNPRSFSQ L2F (TFNPNAKEFNPRSFSQ)
DMS-derived PSSM value, position L2 [4]: 0.1032

TLNPNAKEFNPRSF(averaged) P11M (TLNPNAKEFNMRSF)
DMS-derived PSSM value (averaged), position P11 (prey ATXN2, TLNPNAKEFNPRSF(averaged) over the two overlapping peptides, P = wild type): 0.00553

KSTLNPNAKEFNPRSF P13E (KSTLNPNAKEFNERSF)
DMS-derived PSSM value, position P13 [1]: 0.006076

TLNPNAKEFNPRSF(averaged) F14T (TLNPNAKEFNPRST)
DMS-derived PSSM value (averaged), position F14 [6]: 0.01392

KSTLNPNAKEFNPRSF T3S (KSSLNPNAKEFNPRSF)
DMS-derived PSSM value, position T3 (prey ATXN2, peptide KSTLNPNAKEFNPRSF, T = wild type): 0

TLNPNAKEFNPRSF(averaged) S13P (TLNPNAKEFNPRPF)
DMS-derived PSSM value (averaged), position S13 (prey ATXN2, TLNPNAKEFNPRSF(averaged) over the two overlapping peptides, S = wild type): 0.06349

TLNPNAKEFNPRSFSQ L2Q (TQNPNAKEFNPRSFSQ)
DMS-derived PSSM value, position L2 [4]: 0

TLNPNAKEFNPRSFSQ N5Y (TLNPYAKEFNPRSFSQ)
DMS-derived PSSM value, position N5 [8]: 0.002973

KSTLNPNAKEFNPRSF L4W (KSTWNPNAKEFNPRSF)
DMS-derived PSSM value, position L4 [2]: 0

TLNPNAKEFNPRSFSQ R12Q (TLNPNAKEFNPQSFSQ)
DMS-derived PSSM value, position R12 (prey ATXN2, peptide TLNPNAKEFNPRSFSQ, R = wild type): 0.0158

TLNPNAKEFNPRSFSQ K7R (TLNPNAREFNPRSFSQ)
DMS-derived PSSM value, position K7 (prey ATXN2, peptide TLNPNAKEFNPRSFSQ, K = wild type): 0.00234

TLNPNAKEFNPRSF(averaged) N5V (TLNPVAKEFNPRSF)
DMS-derived PSSM value (averaged), position N5 [9]: 0.05544

KSTLNPNAKEFNPRSF F11D (KSTLNPNAKEDNPRSF)
DMS-derived PSSM value, position F11 [7]: 0

KSTLNPNAKEFNPRSF N12Q (KSTLNPNAKEFQPRSF)
DMS-derived PSSM value, position N12 [3]: 0.02863

KSTLNPNAKEFNPRSF K9Q (KSTLNPNAQEFNPRSF)
DMS-derived PSSM value, position K9 (prey ATXN2, peptide KSTLNPNAKEFNPRSF, K = wild type): 0.02634

TLNPNAKEFNPRSF(averaged) K7G (TLNPNAGEFNPRSF)
DMS-derived PSSM value (averaged), position K7 (prey ATXN2, TLNPNAKEFNPRSF(averaged) over the two overlapping peptides, K = wild type): 0.008693

TLNPNAKEFNPRSFSQ L2V (TVNPNAKEFNPRSFSQ)
DMS-derived PSSM value, position L2 [4]: 0

TLNPNAKEFNPRSFSQ F9D (TLNPNAKEDNPRSFSQ)
DMS-derived PSSM value, position F9 (prey ATXN2, peptide TLNPNAKEFNPRSFSQ, F = wild type): 0.002637

TLNPNAKEFNPRSF(averaged) N3W (TLWPNAKEFNPRSF)
DMS-derived PSSM value (averaged), position N3 [9]: 0

KSTLNPNAKEFNPRSF N7Y (KSTLNPYAKEFNPRSF)
DMS-derived PSSM value, position N7 [3]: 0.00548

TLNPNAKEFNPRSF(averaged) F9M (TLNPNAKEMNPRSF)
DMS-derived PSSM value (averaged), position F9 [6]: 0

KSTLNPNAKEFNPRSF L4I (KSTINPNAKEFNPRSF)
DMS-derived PSSM value, position L4 [2]: 0
